According to ChEMBL document CHEMBL5154804, “Species-Selective Targeting of Fungal Hsp90: Design, Synthesis, and Evaluation of Novel 4,5-Diarylisoxazole Derivatives for the Combination Treatment of Azole-Resistant Candidiasis” (J Med Chem, 2022):
Active and inactive are the calls of the source. No cut-off for these calls is given here.

Key:
Candida albicans [1] = assay: Antifungal activity against fluconazole-resistant Candida albicans 103 assessed as inhibition of fungal growth by checker board microdilution assay; type: functional
Candida albicans [2] = assay: Antifungal activity against fluconazole-resistant Candida albicans 904 assessed as inhibition of fungal growth by checker board microdilution assay; type: functional
Candida albicans [3] = assay: Synergistic antibiofilm activity in Candida albicans 904 assessed as downregulation of TEC1 at 32 ug/ml incubated for 24 hrs in presence of fluconazole by RT-PCR analysis; type: functional, organism-based; conditions: dose 32.0 µg/ml
Candida albicans [4] = assay: Potentiation of fluconazole-induced antifungal activity against fluconazole-resistant Candida albicans 100 assessed as fluconazole MIC by checker board microdilution assay; type: functional
[5] = Metabolic stability in human liver microsomes assessed as half life in presence of NADPH cofactor under shaking condition for 10 mins measured after 5 to 60 mins by LC-MS/MS analysis; type: ADME, Microsome; conditions: time 15-70 min
Candida albicans [6] = assay: Antifungal activity against fluconazole-resistant Candida albicans 311 assessed as inhibition of fungal growth by checker board microdilution assay; type: functional
Candida albicans [7] = assay: Synergistic antibiofilm activity against Candida albicans 904 assessed as inhibition of […] metabolism within the biofilm in presence of fluconazole after 48 hrs by XTT reduction assay; type: functional
Candida albicans [8] = assay: Antibiofilm activity against Candida albicans 904 assessed as inhibition of […] metabolism within the biofilm after 48 hrs by XTT reduction assay; type: functional
CYP3A4 = CYP3A4 (Homo sapiens, UniProt P08684); assay: Inhibition of CYP3A4 in human liver microsome at 10 uM using midazolam as substrate incubated for 10 mins in presence of NADPH cofactor by LC-MS/MS analysis; type: ADME; conditions: liver microsomes, probe midazolam
Candida albicans [9] = assay: Synergistic antifungal activity against fluconazole-resistant Candida albicans 901 assessed as inhibition of fungal growth in presence of fluconazole by checker board microdilution assay; type: functional
[10] = Metabolic stability in human liver microsomes assessed as intrinsic clearance in presence of NADPH cofactor under shaking condition for 10 mins measured after 5 to 60 mins by LC-MS/MS analysis; type: ADME, Microsome; conditions: time 15-70 min
[11] = Stability in human plasma assessed as compound remaining at 120 mins by LC-MS/MS analysis; type: ADME, cell-free; conditions: read-out: Stability
Candida albicans [12] = assay: Antifungal activity against fluconazole-resistant Candida albicans 100 assessed as inhibition of fungal growth by checker board microdilution assay; type: functional
Candida albicans [13] = assay: Synergetic antifungal activity against fluconazole-resistant Candida albicans 904 assessed as fractional inhibitory concentration index in presence of fluconazole by checker board microdilution assay; type: functional
Candida albicans [14] = assay: Synergistic antifungal activity against fluconazole-resistant Candida albicans 103 assessed as inhibition of fungal growth in presence of fluconazole by checker board microdilution assay; type: functional
Candida albicans [15] = assay: Antifungal activity against fluconazole-resistant Candida albicans 901 assessed as inhibition of fungal growth by checker board microdilution assay; type: functional
Candida albicans [16] = assay: Synergetic antifungal activity against fluconazole-resistant Candida albicans 901 assessed as fractional inhibitory concentration index in presence of fluconazole by checker board microdilution assay; type: functional
Candida albicans [17] = assay: Induction of morphological changes in Candida albicans 904 assessed as hyphal formation by measuring CPH1 level incubated for 4 hrs in presence of fluconazole; type: functional, organism-based
[18] = Stability in human plasma assessed as half life at 120 mins by LC-MS/MS analysis; type: ADME, cell-free
Candida albicans [19] = assay: Antibiofilm activity against Candida albicans 904 assessed as inhibition of […] metabolism within the biofilm after 24 hrs by XTT reduction assay; type: functional
Candida albicans [20] = assay: Synergetic antifungal activity against fluconazole-resistant Candida albicans 632 assessed as fractional inhibitory concentration index in presence of fluconazole by checker board microdilution assay; type: functional
CYP2D6 = CYP2D6 (Homo sapiens, UniProt P10635); assay: Inhibition of CYPD6 in human liver microsome at 10 uM using dextromethorphan as substrate incubated for 10 mins in presence of NADPH cofactor by LC-MS/MS analysis; type: ADME; conditions: liver microsomes, probe dextromethorphan
Candida albicans [21] = assay: Synergistic antibiofilm activity against Candida albicans 904 assessed as inhibition of […] metabolism within the biofilm in presence of fluconazole after 24 hrs by XTT reduction assay; type: functional
Candida albicans [22] = assay: Synergistic antibiofilm activity in Candida albicans 904 assessed as downregulation of ALS3 at 32 ug/ml incubated for 24 hrs in presence of fluconazole by RT-PCR analysis; type: functional, organism-based; conditions: dose 32.0 µg/ml
RAW264.7 = assay: Cytotoxicity against mouse RAW264.7 cell assessed as inhibition of cell growth after 24 hrs by MTT assay; type: functional, cell-based; conditions: RAW264.7, 24 h
Candida albicans [23] = assay: Synergistic antifungal activity against fluconazole-resistant Candida albicans 311 assessed as inhibition of fungal growth in presence of fluconazole by checker board microdilution assay; type: functional
Candida albicans [24] = assay: Synergistic antifungal activity against fluconazole-resistant Candida albicans 100 assessed as inhibition of fungal growth in presence of fluconazole by checker board microdilution assay; type: functional
Candida albicans [25] = assay: Potentiation of fluconazole-induced antifungal activity against fluconazole-resistant Candida albicans 311 assessed as fluconazole MIC by checker board microdilution assay; type: functional
CYP2C9 = CYP2C9 (Homo sapiens, UniProt P11712); assay: Inhibition of CYP2C9 in human liver microsome at 10 uM using diclofenac as substrate incubated for 10 mins in presence of NADPH cofactor by LC-MS/MS analysis; type: ADME; conditions: liver microsomes, probe diclofenac
[26] = Cytotoxicity against mouse NIH3T3 cell assessed as inhibition of cell growth after 24 hrs by MTT assay; type: toxicity, cell-based; conditions: NIH3T3 cells
Candida albicans [27] = assay: Synergistic antifungal activity against fluconazole-resistant Candida albicans 632 assessed as inhibition of fungal growth in presence of fluconazole by checker board microdilution assay; type: functional
Candida albicans [28] = assay: Synergetic antifungal activity against fluconazole-resistant Candida albicans 103 assessed as fractional inhibitory concentration index in presence of fluconazole by checker board microdilution assay; type: functional
A549 = assay: Cytotoxicity against human A549 cell assessed as inhibition of cell growth after 24 hrs by MTT assay; type: functional, cell-based; conditions: A549, 24 h
[29] = Metabolic stability in human liver microsomes assessed as microsomal intrinsic clearance in presence of NADPH cofactor under shaking condition for 10 mins measured after 5 to 60 mins by LC-MS/MS analysis; type: ADME, Microsome; conditions: time 15-70 min
Candida albicans [30] = assay: Synergistic antibiofilm activity in Candida albicans 904 assessed as downregulation of EFG1 at 32 ug/ml incubated for 24 hrs in presence of fluconazole by RT-PCR analysis; type: functional, organism-based; conditions: dose 32.0 µg/ml
Candida albicans [31] = assay: Synergistic antibiofilm activity in Candida albicans 904 assessed as downregulation of CPH1 at 32 ug/ml incubated for 24 hrs in presence of fluconazole by RT-PCR analysis; type: functional, organism-based; conditions: dose 32.0 µg/ml

Chain of CYP2C9 (P11712 whole entry): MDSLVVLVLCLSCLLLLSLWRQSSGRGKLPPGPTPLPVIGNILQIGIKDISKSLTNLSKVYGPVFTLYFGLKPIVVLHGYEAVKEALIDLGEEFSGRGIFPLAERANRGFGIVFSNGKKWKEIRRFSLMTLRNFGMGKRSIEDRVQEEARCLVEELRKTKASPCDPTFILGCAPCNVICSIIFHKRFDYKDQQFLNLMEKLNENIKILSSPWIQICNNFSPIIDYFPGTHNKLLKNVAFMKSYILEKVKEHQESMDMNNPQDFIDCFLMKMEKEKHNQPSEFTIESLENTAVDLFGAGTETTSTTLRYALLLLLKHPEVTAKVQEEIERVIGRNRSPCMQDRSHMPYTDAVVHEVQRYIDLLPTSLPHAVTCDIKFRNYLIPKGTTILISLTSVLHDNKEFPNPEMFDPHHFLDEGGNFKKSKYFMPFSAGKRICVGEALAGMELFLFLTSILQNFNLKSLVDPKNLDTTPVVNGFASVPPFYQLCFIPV
Chain of CYP2D6 (P10635 whole entry): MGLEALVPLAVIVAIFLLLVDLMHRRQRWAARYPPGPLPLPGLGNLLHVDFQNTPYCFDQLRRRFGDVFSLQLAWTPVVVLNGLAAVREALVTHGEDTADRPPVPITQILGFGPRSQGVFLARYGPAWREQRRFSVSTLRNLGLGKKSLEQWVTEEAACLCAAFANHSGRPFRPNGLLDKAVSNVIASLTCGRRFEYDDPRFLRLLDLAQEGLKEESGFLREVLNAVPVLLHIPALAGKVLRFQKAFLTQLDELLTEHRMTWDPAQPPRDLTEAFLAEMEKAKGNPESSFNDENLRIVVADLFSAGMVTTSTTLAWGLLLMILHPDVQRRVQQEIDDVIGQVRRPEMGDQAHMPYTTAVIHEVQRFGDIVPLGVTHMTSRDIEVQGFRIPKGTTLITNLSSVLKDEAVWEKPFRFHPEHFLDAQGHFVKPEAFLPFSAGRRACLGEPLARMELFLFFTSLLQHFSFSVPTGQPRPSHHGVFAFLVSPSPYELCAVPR
Chain of CYP3A4 (P08684 whole entry): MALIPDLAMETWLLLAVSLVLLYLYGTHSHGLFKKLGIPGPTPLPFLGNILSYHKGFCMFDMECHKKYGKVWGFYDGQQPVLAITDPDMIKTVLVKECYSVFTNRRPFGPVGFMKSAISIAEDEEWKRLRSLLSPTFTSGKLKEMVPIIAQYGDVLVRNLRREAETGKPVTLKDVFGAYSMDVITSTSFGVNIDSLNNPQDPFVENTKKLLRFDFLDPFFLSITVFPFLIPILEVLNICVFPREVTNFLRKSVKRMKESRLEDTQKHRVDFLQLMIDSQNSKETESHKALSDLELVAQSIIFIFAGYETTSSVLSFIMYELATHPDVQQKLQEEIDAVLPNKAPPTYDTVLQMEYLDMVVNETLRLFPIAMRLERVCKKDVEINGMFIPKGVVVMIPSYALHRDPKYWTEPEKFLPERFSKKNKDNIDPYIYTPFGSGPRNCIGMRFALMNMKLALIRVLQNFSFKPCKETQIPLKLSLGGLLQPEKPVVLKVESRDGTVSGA

| SMILES | MIC80 (Candida albicans [1]) [µg/mL] | MIC80 (Candida albicans [2]) [µg/mL] | Activity (Candida albicans [3]) | MIC80 (Candida albicans [4]) [µg/mL] | half-life [5] [min] | MIC80 (Candida albicans [6]) [µg/mL] | MIC50 (Candida albicans [7]) [µg/mL] | MIC50 (Candida albicans [8]) [µg/mL] | inhibition at 10 min, 10 µM (CYP3A4) [%] | MIC80 (Candida albicans [9]) [µg/mL] | CLint [10] [mL/min/kg] | remaining at 2 h [11] [%] | MIC80 (Candida albicans [12]) [µg/mL] | fractional inhibitory concentration index (FICI) (Candida albicans [13]) | MIC80 (Candida albicans [14]) [µg/mL] | MIC80 (Candida albicans [15]) [µg/mL] | fractional inhibitory concentration index (FICI) (Candida albicans [16]) | Activity (Candida albicans [17]) | half-life [18] [min] | MIC50 (Candida albicans [19]) [µg/mL] | further results |
| --- | --- | --- | --- | --- | --- | --- | --- | --- | --- | --- | --- | --- | --- | --- | --- | --- | --- | --- | --- | --- | --- |
| CCNC(=O)c1noc(-c2cc(-c3ccc(C)cc3)c(O)cc2O)c1-c1ccc(CN2CCOCC2)cc1 | > 64 | > 64 | Active | 2 | 32.1 | > 64 | 1 | > 64 | 36.7 | 0.125 | 38.9 | 110 | > 64 | 0.035 | 0.25 | > 64 | 0.018 | Active | > 288 | > 64 | fractional inhibitory concentration index (FICI) (Candida albicans [20]): 0.033; inhibition at 10 min, 10 µM (CYP2D6): 36.9%; MIC50 (Candida albicans [21]): 0.25 µg/mL; Activity (Candida albicans [22]): Active; IC50 (RAW264.7): 17.1 µM; MIC80 (Candida albicans [23]): 0.25 µg/mL; MIC80 (Candida albicans [24]): 0.125 µg/mL; MIC80 (Candida albicans [25]): 2 µg/mL; inhibition at 10 min, 10 µM (CYP2C9): 36.5%; IC50 at 24 h [26]: 21.3 µM; MIC80 (Candida albicans [27]): 0.125 µg/mL; fractional inhibitory concentration index (FICI) (Candida albicans [28]): 0.035; IC50 (A549): 13.1 µM; CLint [29]: 43.2 µL/min/mg; Activity (Candida albicans [30]): Active; Activity (Candida albicans [31]): Active |
| CNC(=O)c1noc(-c2cc(-c3ccc(C)cc3)c(O)cc2O)c1-c1ccc(CN2CCOCC2)cc1 | > 64 | > 64 | Active | 2 | 24.8 | > 64 | 4 | > 64 | 43.2 | 0.5 | 50.3 | 92.8 | > 64 | 0.02 | 1 | > 64 | 0.039 | Active | > 288 | > 64 | fractional inhibitory concentration index (FICI) (Candida albicans [20]): 0.016; inhibition at 10 min, 10 µM (CYP2D6): 86.3%; MIC50 (Candida albicans [21]): 1 µg/mL; Activity (Candida albicans [22]): Active; IC50 (RAW264.7): 11.3 µM; MIC80 (Candida albicans [23]): 2 µg/mL; MIC80 (Candida albicans [24]): 0.25 µg/mL; MIC80 (Candida albicans [25]): 2 µg/mL; inhibition at 10 min, 10 µM (CYP2C9): 25.2%; IC50 at 24 h [26]: 8.63 µM; MIC80 (Candida albicans [27]): 0.5 µg/mL; fractional inhibitory concentration index (FICI) (Candida albicans [28]): 0.047; IC50 (A549): 7.12 µM; CLint [29]: 55.9 µL/min/mg; Activity (Candida albicans [30]): Active; Activity (Candida albicans [31]): Active |
